{"source": "patent US7696362B2", "about": "“Derivatives of artemisinin, and their uses in the treatment of malaria” (Centre National de la Recherche Scientifique, priority 2001, dated 2010)", "key": {"[1]": {"assay": "Solubility in water", "type": "physicochemical", "conditions": "hydrochloride"}, "[2]": {"test_system": "Plasmodium berghei", "assay": "Peters test on mice infected by Plasmodium berghei", "type": "in vivo", "conditions": "after 20 days; daily dose of 50 mg/Kg for 4 days"}, "[3]": {"test_system": "sensitive strains of P. falciparum", "assay": "IC50 vis-à-vis sensitive strains of P. falciparum", "type": "cell-based", "conditions": "Plasmodium falciparum"}, "[4]": {"test_system": "resistant (W2) strains of P. falciparum", "assay": "IC50 vis-à-vis resistant (W2) strains of P. falciparum", "type": "cell-based", "conditions": "Plasmodium falciparum"}}, "data": [{"smiles": "C[C@@H]1CC[C@H]2C(CN3CCOCC3)=C(C(F)(F)F)O[C@@H]3OC4(C)CC[C@@H]1[C@]32OO4", "values": [{"measurement": "solubility", "setting": "[1]", "result": "> 20", "unit": "mg/mL"}]}, {"smiles": "C[C@@H]1CC[C@H]2C(CN3CCN(CCO)CC3)=C(C(F)(F)F)O[C@@H]3OC4(C)CC[C@@H]1[C@]32OO4", "values": [{"measurement": "survival of mice in the Peters test", "setting": "[2]", "result": "all the mice survive"}, {"measurement": "IC50", "setting": "[3]", "result": 17, "unit": "nM"}, {"measurement": "IC50", "setting": "[4]", "result": 3, "unit": "nM"}]}, {"smiles": "C[C@@H]1CC[C@H]2C(CN3CCN(CCO)CC3)=C(C(F)(F)F)O[C@@H]3OC4(C)CC[C@@H]1[C@]32OO4", "note": "[drawing 28]", "values": [{"measurement": "solubility", "setting": "[1]", "result": "> 50", "unit": "mg/mL"}]}]}
